The source of these data is patent publication US20250221920A1, “Antioxidant Compositions” (THE BOOTS COMPANY PLC, priority 2022, published 2025).

The assay in a line: Total Antioxidant Capacity (TAC) assay, Cell Biolabs kit, copper ion reagent, absorbance at 490 nm. Format: biochemical. The settings on record: triplicate. How it is done:
Total antioxidant capacity (TAC) was determined using a kit (Cell Biolabs, Inc) as follows; the test samples were diluted in water and a buffer to reach a final antioxidant agent to buffer ratio ranging from 1:1 to 1:1,000,000. 20 ul of test sample or control (ascorbic acid or green tea) were added to the wells of 96 well plate, followed by 180 μL of 1X Reaction Buffer (provided with the kit). The absorbance of the reaction mix in each well was measured at 490 nm to get an initial reading. 50 μL of the 1X Copper Ion Reagent (provided with the kit) were added to each well to initiate the reaction. The reaction was allowed to carry on for 5 minutes on an orbital shaker and 50 μL of 1X Stop Solution (provided with the kit) added to each well to terminate the reaction. The colour change was assessed using a plate reader at 490 nm.
The stronger the colour change at the end of the reaction, the higher the spectrophotometric value, and the higher the antioxidant capacity of the antioxidant agents.
21 antioxidant compounds were tested in triplicate at antioxidant: buffer ratios ranging from 1:1 to 1:1,000,000.
The actual TAC of each of these compounds was calculated using the TAC assay described above, and compared with the predicted values to determine the % difference in TAC.

On to Dimethylmethylmethoxy chromanol, for which the “Total Antioxidant Capacity (TAC)” value is on record as 1.839 (Antioxidant:Buffer 1:1 (concentration 1)), 1.807 (Antioxidant:Buffer 1:10 (concentration 0.1)) and 1.824 (Antioxidant:Buffer 1:100 (concentration 0.01)).
